The term pIC50 denotes the IC50 on a negative log10 scale, so that one unit is a factor of ten.

pIC50: −log10 of the molar value.

The subject of the first assay is stimulated primary human T cells. Nature of the assay: T cell proliferation assay, Condition A (X-VIVO15). Format: cell-based. Particulars: Homo sapiens, T-cell, 96 h; Condition A: X-VIVO15 medium; anti-CD3/anti-CD28 beads, ATP, 4 days; CFSE-lo T cells. As for the experimental part:
(§1) The goal of this study was to determine the potency of ENT1 inhibitors by measuring the rescued proliferation of stimulated primary human T cells incubated in the presence of 100 uM Adenosine triphosphate (ATP), in baseline conditions (condition A) or in the presence of various proteins known to bind small molecules (condition B).
(§2) Venous blood from healthy volunteers, all of whom signed an informed consent approved by the Ethics Committee (FOR—UIC—BV-050-01-01 ICF_HBS_HD Version 5.0), was obtained by ImmuneHealth (Centre Hospitalier Universitaire Tivoli, La Louviere, Belgium). Mononuclear cells were collected by density gradient centrifugation, using SepMate-50 tubes (StemCell Technologies, Grenoble, France) and Lymphoprep (Stemcell Technologies) according to the manufacturer's instructions. CD3+ T cells were isolated by immunomagnetic negative selection, using the EasySep Human T Cell Isolation Kit (StemCell Technologies) as per the manufacturer's instructions. CD3+ T cells were stored in heat inactivated FBS (hiFBS; Gibco, ThermoFisher Scientific, Merelbeke, Belgium) and 10% DMSO in liquid nitrogen.
(§3) Purified human CD3+ T cells were thawed and washed once with RPMI1640 medium, UltraGlutamine (Lonza, Verviers, Belgium) containing 10% hiFBS. Cells were resuspended in PBS containing 10% hiFBS at 1×10^7 cells/ml. One volume of cells was combined with a matching volume of 2 μM CFSE solution in PBS, mixed well by pipetting, and incubated at room temperature for 5 minutes under rotation and protected from light. Excess CFSE was quenched by addition of PBS containing 10% hiFBS, and the cells were centrifuged (300×rcf, 7 minutes) and resuspended in X-VIVO15. Cells were again centrifuged and resuspended in X-VIVO15 for counting.
(§4) Cells were resuspended at 1.6×10^6 cells/mL in X-VIVO15 medium (Condition A) or X-VIVO15 medium containing 4% (v/v) HSA (Sigma-Aldrich, Diegem, Belgium) and 0.2% (v/v) ai-Acid Glycoprotein (Sigma-Aldrich, Diegem, Belgium) (Condition B).
(§5) […] of cell suspension (2×10^4 cells) was added to wells of sterile flat-bottom 384-well plates. Cells were activated by adding […] of anti-CD3 anti-CD28 coated microbeads (Dynabeads human T-activator CD3/CD28; Life Technologies, Paisley, UK) suspended in X-VIVO15 medium or X-VIVO15 medium containing 4% (v/v) HSA and 0.2% (v/v) ai-Acid Glycoprotein at a ratio of one microbead per two cells. Serial dilutions of the ENT1 inhibitors were conducted in X-VIVO15 medium and […] of the diluent was added to the wells. Cells were mixed by pipetting up and down and pre-incubated for 30 minutes in a 37° C. humidified tissue culture incubator with 5% CO2. After pre-incubation, cells were cultured in the presence or absence of ATP (Sigma-Aldrich) at a final concentration of […]. The final well volume was 50 μl in all cases. Experiments were performed in biological duplicates. Cells were mixed by pipetting up and down and incubated for 4 days in a 37° C. humidified tissue culture incubator with 5% CO2.
(§6) Samples were run on a BD LSR Fortessa FACS machine (BD FACSDiva Software v9.0.1). Data were analyzed using FlowJo (BD, v10.7.1). T cell proliferation was determined by measuring the frequency of ‘CFSE^lo’ (i.e. CFSE-diluted).
(§7) T cell proliferation data were analyzed using FlowJo software (Version 10.6.2). Dead cells and cellular debris were excluded on the basis of forward and side scatter profile and singlet cells were selected for further analysis.
(§8) T cell proliferation was determined based on the percent CFSE^lo total T cells for each condition. The data were plotted on the y-axis against log molar (M) concentration of ENT1 inhibitors on the x-axis in GraphPad Prism (version 9.0.0). IC50 and IC90 values were generated with the ‘log(agonist) vs. response—Find ECanything(F))’ function with F constrained to 50 or 90, respectively. pICF values were generated by taking the −logECF values.
`C[C@H]1O[C@@H](n2c(NC3CCCC3)nc3c(OCc4ccc(C#N)cc4)ncnc32)[C@H](O)[C@@H]1O` [Compound 12] showed a pIC50 greater than 9.00.
The same measure, in the same setting: then `C[C@H]1O[C@@H](n2c(NC3CCCC3)nc3c(OCc4ccc(OC(F)F)nc4)ncnc32)[C@H](O)[C@@H]1O` [Compound 14], with greater than 9.00; and `C[C@H]1O[C@@H](n2c(NCCO)nc3c(OCc4ccc([N+](=O)[O-])cc4)ncnc32)[C@H](O)[C@@H]1O` [Compound 21], with 7.70 to 9.00.
With `C[C@H]1O[C@@H](n2cnc3c(OCc4ccc(C#N)c(F)c4)ncnc32)[C@H](O)[C@@H]1O` [Compound 174], the pIC50 is 7.70 to 9.00.
The same measure, in the same setting: then `C[C@H]1O[C@@H](n2cnc3c(OCc4ccc(C(F)F)cc4)ncnc32)[C@H](O)[C@@H]1O` [Compound 182], with 7.70 to 9.00; and `C[C@H]1O[C@@H](n2c(NCCC3CCN(C)CC3)nc3c(OCc4ccc([N+](=O)[O-])cc4)ncnc32)[C@H](O)[C@@H]1O` [Compound 34], with 7.70 to 9.00; and `C[C@H]1O[C@@H](n2c(NC3CC(F)(F)C3)nc3c(OCc4ccc(C#N)cc4)ncnc32)[C@H](O)[C@@H]1O` [Compound 49], with less than 6.30.
On the same count and under the same terms, then `C[C@H]1O[C@@H](n2c(NC3CC(F)(F)C3)nc3c(OCc4ccc([N+](=O)[O-])cc4)ncnc32)[C@H](O)[C@@H]1O` [Compound 47], with greater than 9.00; and `CC(=O)N1CCC(Nc2nc3c(OCc4ccc(OC(F)F)cc4)ncnc3n2[C@@H]2O[C@H](C)[C@@H](O)[C@H]2O)CC1` [Compound 79], with greater than 9.00.
The same measure, in the same setting: then `C[C@H]1O[C@@H](n2cnc3c(OCc4ccc(OC(F)F)cc4)nc(Cl)nc32)[C@H](O)[C@@H]1O` [Compound 161], with 7.70 to 9.00; and `C[C@H]1O[C@@H](n2cnc3c(N(C)Cc4ccc([N+](=O)[O-])cc4)ncnc32)[C@H](O)[C@@H]1O` [Compound 177], with 6.30 to 7.70; and `CCNc1nc2c(OCc3ccc([N+](=O)[O-])cc3)ncnc2n1[C@@H]1O[C@H](C)[C@@H](O)[C@H]1O` [Compound 20], with greater than 9.00.

Another assay has the same test system. As to the kind of experiment: T cell proliferation assay, Condition B (X-VIVO15, 2% HSA and 0.1% AAG). Type of assay: cell-based. Particulars: Homo sapiens, T-cell, 96 h; Condition B: X-VIVO15 medium containing HSA and α1-Acid Glycoprotein; anti-CD3/anti-CD28 beads, ATP, 4 days; CFSE-lo T cells. As for the experimental part:
as §1
Condition B: X-VIVO15, 2% Human Serum Albumin (HSA) and 0.1% α-1-Acid Glycoprotein (AAG)
as §2, §3, §4, §5, §6, §7, §8
`C[C@H]1O[C@@H](n2c(NC3CCCC3)nc3c(OCc4ccc(C#N)cc4)ncnc32)[C@H](O)[C@@H]1O` [Compound 12] had a pIC50 of 6.30 to 7.70.
On the same count and under the same terms, then `C[C@H]1O[C@@H](n2c(NC3CCCC3)nc3c(OCc4ccc(OC(F)F)nc4)ncnc32)[C@H](O)[C@@H]1O` [Compound 14], with 6.30 to 7.70.
As to `C[C@H]1O[C@@H](n2c(NCCO)nc3c(OCc4ccc([N+](=O)[O-])cc4)ncnc32)[C@H](O)[C@@H]1O` [Compound 21], the pIC50 is 6.30 to 7.70.
Still for that read-out and setting: then `C[C@H]1O[C@@H](n2cnc3c(OCc4ccc(C#N)c(F)c4)ncnc32)[C@H](O)[C@@H]1O` [Compound 174], with less than 6.30; and `C[C@H]1O[C@@H](n2cnc3c(OCc4ccc(C(F)F)cc4)ncnc32)[C@H](O)[C@@H]1O` [Compound 182], with less than 6.30.
Same read-out and setting: then `C[C@H]1O[C@@H](n2c(NCCC3CCN(C)CC3)nc3c(OCc4ccc([N+](=O)[O-])cc4)ncnc32)[C@H](O)[C@@H]1O` [Compound 34], with 6.30 to 7.70; and `C[C@H]1O[C@@H](n2c(NC3CC(F)(F)C3)nc3c(OCc4ccc(C#N)cc4)ncnc32)[C@H](O)[C@@H]1O` [Compound 49], with 6.30 to 7.70.
The same measure, in the same setting: then `C[C@H]1O[C@@H](n2c(NC3CC(F)(F)C3)nc3c(OCc4ccc([N+](=O)[O-])cc4)ncnc32)[C@H](O)[C@@H]1O` [Compound 47], with 6.30 to 7.70.
For the compound `CC(=O)N1CCC(Nc2nc3c(OCc4ccc(OC(F)F)cc4)ncnc3n2[C@@H]2O[C@H](C)[C@@H](O)[C@H]2O)CC1` [Compound 79], the pIC50 was 7.70 to 9.00.
The compound `C[C@H]1O[C@@H](n2cnc3c(OCc4ccc(OC(F)F)cc4)nc(Cl)nc32)[C@H](O)[C@@H]1O` [Compound 161] had a pIC50 of 6.30 to 7.70.
On the same count and under the same terms, then `C[C@H]1O[C@@H](n2cnc3c(N(C)Cc4ccc([N+](=O)[O-])cc4)ncnc32)[C@H](O)[C@@H]1O` [Compound 177], with less than 6.30; and `CCNc1nc2c(OCc3ccc([N+](=O)[O-])cc3)ncnc2n1[C@@H]1O[C@H](C)[C@@H](O)[C@H]1O` [Compound 20], with 6.30 to 7.70.

Another assay deals with T1, human ENT1 (Homo sapiens, UniProt Q99808).
T1 construct: JAR cells expressing ENT1 were purchased from ATCC; host or cells: JAR cells
T1 sequence (Q99808 1-456): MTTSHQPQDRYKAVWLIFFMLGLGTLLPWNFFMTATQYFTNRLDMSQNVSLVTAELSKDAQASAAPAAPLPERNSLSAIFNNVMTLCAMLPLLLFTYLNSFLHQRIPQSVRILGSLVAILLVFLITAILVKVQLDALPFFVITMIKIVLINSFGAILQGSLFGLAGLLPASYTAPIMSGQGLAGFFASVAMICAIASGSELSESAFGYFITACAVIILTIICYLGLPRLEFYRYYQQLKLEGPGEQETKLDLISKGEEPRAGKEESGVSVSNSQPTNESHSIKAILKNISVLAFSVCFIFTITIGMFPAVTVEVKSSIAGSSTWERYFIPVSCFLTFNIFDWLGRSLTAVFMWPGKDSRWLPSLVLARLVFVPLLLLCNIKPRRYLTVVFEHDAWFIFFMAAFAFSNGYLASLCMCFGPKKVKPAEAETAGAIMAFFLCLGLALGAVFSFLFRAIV
Nature of the assay: ENT1 binding assay (competition with Sahenta-DY647 on JAR cells). The settings on record: competition with SAHENTA-DY647 binding; IC50 categorized; read-out: Binding Assay IC50. In a few lines:
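Fluorescent-tracer displacement: compound incubated with JAR cells 30 min, 4 °C, before Sahenta-DY647 (100 nM) for another 30 min, 4 °C, in Hepes-buffered HBSS with 0.1% BSA. Bound tracer read at 670 nm after washes; IC50 from four-parameter fit, reported as mean of pIC50 values.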
Consider `C[C@H]1O[C@@H](n2c(NC3CCCC3)nc3c(OCc4ccc(C#N)cc4)ncnc32)[C@H](O)[C@@H]1O` [Compound 12], for which the pIC50 is greater than 9.00.
Consider `C[C@H]1O[C@@H](n2c(NC3CCCC3)nc3c(OCc4ccc(OC(F)F)nc4)ncnc32)[C@H](O)[C@@H]1O` [Compound 14], for which the pIC50 is greater than 9.00.
The same measure, in the same setting: then `C[C@H]1O[C@@H](n2c(NCCO)nc3c(OCc4ccc([N+](=O)[O-])cc4)ncnc32)[C@H](O)[C@@H]1O` [Compound 21], with 7.70 to 9.00; and `C[C@H]1O[C@@H](n2cnc3c(OCc4ccc(C#N)c(F)c4)ncnc32)[C@H](O)[C@@H]1O` [Compound 174], with 6.30 to 7.70; and `C[C@H]1O[C@@H](n2cnc3c(OCc4ccc(C(F)F)cc4)ncnc32)[C@H](O)[C@@H]1O` [Compound 182], with 6.30 to 7.70.
As for `C[C@H]1O[C@@H](n2c(NCCC3CCN(C)CC3)nc3c(OCc4ccc([N+](=O)[O-])cc4)ncnc32)[C@H](O)[C@@H]1O` [Compound 34], the pIC50 was 6.30 to 7.70.
Same read-out and setting: then `C[C@H]1O[C@@H](n2c(NC3CC(F)(F)C3)nc3c(OCc4ccc(C#N)cc4)ncnc32)[C@H](O)[C@@H]1O` [Compound 49], with 7.70 to 9.00; and `C[C@H]1O[C@@H](n2c(NC3CC(F)(F)C3)nc3c(OCc4ccc([N+](=O)[O-])cc4)ncnc32)[C@H](O)[C@@H]1O` [Compound 47], with 7.70 to 9.00.
As for `CC(=O)N1CCC(Nc2nc3c(OCc4ccc(OC(F)F)cc4)ncnc3n2[C@@H]2O[C@H](C)[C@@H](O)[C@H]2O)CC1` [Compound 79], the pIC50 was greater than 9.00.
Regarding `C[C@H]1O[C@@H](n2cnc3c(OCc4ccc(OC(F)F)cc4)nc(Cl)nc32)[C@H](O)[C@@H]1O` [Compound 161], the pIC50 was 7.70 to 9.00.
Same read-out and setting: then `C[C@H]1O[C@@H](n2cnc3c(N(C)Cc4ccc([N+](=O)[O-])cc4)ncnc32)[C@H](O)[C@@H]1O` [Compound 177], with 6.30 to 7.70.
Turning to `CCNc1nc2c(OCc3ccc([N+](=O)[O-])cc3)ncnc2n1[C@@H]1O[C@H](C)[C@@H](O)[C@H]1O` [Compound 20], the pIC50 is 7.70 to 9.00.

(Values after US20260184712A1, “Heterocyclic Compounds as ENT Inhibitors and Compounds for Use in the Treatment of Cancers” (iTeos Belgium SA, priority 2022, published 2026).)
